Results on five compounds are retold here after paper PMC6949113, “Preclinical evaluation of AT-527, a novel guanosine nucleotide prodrug with potent, pan-genotypic activity against hepatitis C virus” (PLoS ONE, 2020).

Broadly, the EC50 is the concentration needed to bring the measured effect to its halfway point.

Molecules are shown by their SMILES. Structures can show the parent of a compound that is named as a salt. Where two headings read alike, the source gives them in different places. Where only a bound is given, the exact number is not on record here.

One data set has as its system HSV-1. Description: Anti-HSV-1 assay (XTT). The data set is classed as cell-based, herpes simplex virus type 1. To be noted: Human alphaherpesvirus 1; HSV-1 in Vero cells. The source says: Anti-Herpes Simplex Type 1 Virus (HSV-1).
(§1) Determination of antiviral activity and cytotoxicity.
Background: Formazan colour is commonly taken as a measure of viable cells.

A further data set relates to Vero cells. In words: XTT cytotoxicity, Vero cells. The class given is cell-based, African green monkey.
In a further data set the test system is Flu B. Description: Anti-influenza B assay (XTT). The data set is classed as cell-based, influenza virus type B. Conditions: Influenza B virus; Flu B in MDCK cells.
Source text: Anti-Influenza Type A and B Virus (Flu A & B). […] The influenza A/PR/8/34 (VR-95) and influenza B/Allen/45 (VR-102) was obtained from ATCC and a stock virus pool was produced in MDCK cells.
as §1

The next data set concerns Flu A. Description: Anti-influenza A assay (XTT). The class given is cell-based, influenza virus type A. To be noted: Influenza A virus; Flu A in MDCK cells.
The subject of the next data set is CoV. In words: Anti-coronavirus assay (XTT). The data set is classed as cell-based. Conditions: MRC5; CoV in MRC-5 cells.
Source text: as §1

The subject of another data set is H1-HeLa cells. Description: XTT cytotoxicity, H1-HeLa cells. The data set is classed as cell-based. To be noted: HRV assay.
Source text: (§2) Anti-Human Rhinovirus (HRV).
as §1

Another data set concerns HRV. Description: Anti-human rhinovirus assay (XTT). To be noted: Human rhinovirus sp.; HRV in H1-HeLa cells. The class given is cell-based.
Source text: as §2, §1

The subject of another data set is MRC-5 cells. In words: XTT cytotoxicity, MRC-5 cells. The data set is classed as cell-based. Conditions: MRC-5, CoV assay.
Source text: as §1

The test system of the next data set is AdV. In words: Anti-adenovirus assay (XTT). Conditions: unidentified adenovirus; AdV in HeLa cells. The class given is cell-based.
Source text: as §1

In another data set the test system is HeLa cells. Description: XTT cytotoxicity, HeLa cells. The class given is cell-based. Conditions: AdV assay.
The subject of another data set is Zika. In words: Anti-Zika virus assay (XTT). The data set is classed as cell-based. Conditions: Zika in Vero cells.
Source text: Anti-Zika Virus (Zika). […] Monolayers were approximately 70% confluent for the assay. Zika virus strain MR766 was obtained from ATCC (VR-84) and a stock virus pool was produced in LLCMK2 cells.
as §1

The next data set relates to AD38 cells. In words: XTT cytotoxicity, AD38 cells. The class given is cell-based. Conditions: AD38, HBV assay. On the procedure:
as §1
(§3) Anti-HBV evaluation. […] The test compound was serially diluted in the RPMI/FBS medium and added to the wells in triplicate (with six wells receiving medium alone as a virus only control). The plate was incubated for 6 days, with a change in medium (+/- compound) on Day 3. Supernatant (100 µL) was collected from each well for analysis of viral DNA by qPCR as described below and cytotoxicity was evaluated by XTT staining of the cell culture monolayer on the sixth day as described above.

The test system of a further data set is HBV. In words: Anti-HBV evaluation (qPCR of HBV DNA). The class given is cell-based. Conditions: Hepatitis B virus; HBV in AD38 cells. The procedure: as §3
Quantitative PCR detection of HBV DNA. Cell culture supernatant (10 µL) was diluted in qPCR dilution buffer (40 µg/mL sheared salmon sperm DNA) and boiled for 15 min. Quantitative real time PCR was performed in […] using an Applied Biosystems 7900HT Sequence Detection System and the supporting SDS 2.4 software. Samples (5 µL boiled DNA) and DNA standards were subjected to real time qPCR using Platinum Quantitative PCR SuperMix-UDG (Invitrogen) and specific DNA oligonucleotide primers (IDT, Coralville, […]) HBV-AD38-qF1 (5’-[…] -3’), HBV-AD38-qR1 (5’-AGT CCA AGA GTY CTC TTA TRY AAG ACC TT-3’), and HBV-AD38-qP1 (5’-FAM-CCG TGT GCA/ZEN/[…] -3’BHQ1) at a final concentration of 0.2 µM for each primer in a total reaction volume of 15 µL. […]

The next data set relates to CEM-SS cells. Description: XTT cytotoxicity, CEM-SS cells. The class given is cell-based. Conditions: HIV-1 assay.
Data set [1] has as its system granulocyte macrophage (GM) human bone marrow progenitor cells. In words: Bone marrow progenitor cell inhibition assay, GM. The data set is classed as cell-based. Conditions: 14 days.
The next data set concerns HIV-1. In words: Anti-HIV-1 assay (XTT). The data set is classed as cell-based, human immunodeficiency virus type 1. Conditions: Human immunodeficiency virus 1; HIV-1 in CEM-SS cells. On the procedure: Anti-Human Immunodeficiency Virus (HIV-1). CEM-SS cells were obtained from the NIH AIDS Research and Reference Reagent Program (Manassas, VA), resuspended at 5x10^4 cells per mL and 50 µL added to the microtiter plate wells. The lymphocyte-tropic virus strain HIV-1RF (obtained from the NIH AIDS Research and Reference Reagent Program and grown in CEM-SS cells for stock virus pools) was used for the assay.
as §1

For data set [2], the system named is erythroid (E) human bone marrow progenitor cells. Description: Bone marrow progenitor cell inhibition assay, E. The class given is cell-based. Conditions: 14 days. The source says: Bone marrow progenitor cell inhibition assays. […] The resulting number of colonies (greater than 30 cells) were compared to control wells to determine the extent of cytotoxicity.

Compound `Nc1nc2c(ncn2COCCO)c(=O)[nH]1` [Acyclovir] gave an EC50 with HSV-1 of 1.76 µM. For the same compound, the TC50 with Vero cells (HSV-1 assay) was greater than 100 µM.
As for `CCOC(=O)C1=C[C@@H](OC(CC)CC)[C@H](NC(C)=O)[C@@H](N)C1` [Oseltamivir], the EC50 was found to be 0.42 µM in the data set with Flu B and 0.16 µM with Flu A. The TC50 in the data set on MDCK cells (Flu A assay) and in the data set on MDCK cells (Flu B assay) was greater than 10.0 µM each time.
On to `NC(=O)c1ncn([C@@H]2O[C@H](CO)[C@@H](O)[C@H]2O)n1` [Ribavirin], for which the EC50 was found to be 3.85 µM in the data set on CoV, 17.1 µM in the data set with HRV, 0.76 µM in the data set with AdV and 5.65 µM in the data set with Zika. For the same compound, the TC50 was 40.6 µM in the data set on H1-HeLa cells, 38.8 µM in the data set with Vero cells (Zika assay), greater than 100 µM with MRC-5 cells and 11.7 µM in the data set on HeLa cells.
As to `CC(C)OC(=O)OCOP(=O)(CO[C@H](C)Cn1cnc2c(N)ncnc21)OCOC(=O)OC(C)C` [TDF, tenofovir disoproxil fumarate], the TC50 in the data set on AD38 cells was greater than 1.0 µM. In the data set on HBV, this compound had an EC50 of 0.23 µM.
Regarding `Cc1cn([C@H]2C[C@H](N=[N+]=[N-])[C@@H](CO)O2)c(=O)[nH]c1=O` [Zidovudine], the TC50 with CEM-SS cells is greater than 0.50 µM; in [1] it was 1 µM; in data set [2], 2 µM. In addition, the EC50 in the data set on HIV-1 stood at 0.004 µM.
